Test results from patent US11427548B2 (Arvinas Operations, Inc., priority 2015, dated 2022).
Read-outs that look alike come from different tables or passages of the source.

Molecular target: T1, Androgen Receptor (Homo sapiens, UniProt P10275)
T1 construct: endogenous in cells; host or cells: VCaP cells
T1 sequence (P10275 1-920): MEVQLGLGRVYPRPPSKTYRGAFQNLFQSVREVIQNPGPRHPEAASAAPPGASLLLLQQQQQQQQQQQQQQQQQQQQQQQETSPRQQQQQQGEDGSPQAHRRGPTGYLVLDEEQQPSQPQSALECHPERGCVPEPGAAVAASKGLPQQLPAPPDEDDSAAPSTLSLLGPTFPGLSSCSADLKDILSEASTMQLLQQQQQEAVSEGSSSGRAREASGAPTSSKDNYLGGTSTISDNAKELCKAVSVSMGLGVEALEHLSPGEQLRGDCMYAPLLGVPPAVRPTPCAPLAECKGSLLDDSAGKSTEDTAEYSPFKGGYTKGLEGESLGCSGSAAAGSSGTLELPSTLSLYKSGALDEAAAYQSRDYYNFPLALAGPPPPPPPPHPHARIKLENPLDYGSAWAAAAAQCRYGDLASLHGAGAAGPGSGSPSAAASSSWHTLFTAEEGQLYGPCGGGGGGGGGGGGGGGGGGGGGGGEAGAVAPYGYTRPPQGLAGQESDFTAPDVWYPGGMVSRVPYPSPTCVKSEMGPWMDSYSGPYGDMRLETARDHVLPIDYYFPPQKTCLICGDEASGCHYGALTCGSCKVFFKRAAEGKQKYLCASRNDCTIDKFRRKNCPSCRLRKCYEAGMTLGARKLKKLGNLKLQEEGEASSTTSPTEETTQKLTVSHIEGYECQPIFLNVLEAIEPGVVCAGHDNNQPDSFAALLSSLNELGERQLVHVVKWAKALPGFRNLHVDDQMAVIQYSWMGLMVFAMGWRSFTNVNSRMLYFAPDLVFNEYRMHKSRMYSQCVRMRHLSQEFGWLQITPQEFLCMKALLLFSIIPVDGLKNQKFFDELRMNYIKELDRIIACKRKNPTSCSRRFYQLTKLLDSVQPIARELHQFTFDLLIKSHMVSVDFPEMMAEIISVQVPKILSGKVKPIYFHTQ
Test: Androgen Receptor ELISA assay (PathScan AR ELISA) in VCaP cells: AR degradation, Dmax and DC50
Format: cell-based
Procedure, shortened: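 VCaP cells in phenol red-free RPMI with 5% charcoal-stripped FBS were grown at least 3 days, then given compound as 7 half-log doses in 0.1% DMSO with 0.1 nM R1881 for 24 h. Lysates went into a sandwich AR ELISA with TMB read at 450 nm.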

[1] = read-out: VCaP DC50; concentration that caused 50% Androgen Receptor degradation, VCaP cells (Table 32)
[2] = VCaP, highest percentage of Androgen Receptor degradation observed, VCaP cells (Table 32); read-out: VCaP Dmax (%)
[3] = concentration that caused 50% Androgen Receptor degradation, VCaP cells (Table 32); read-out: VCaP DC50

| Structure (SMILES) | Dmax (VCaP, read-out: VCaP Dmax (%)) [%] | DC50 [1] [nM] | Dmax [2] [%] | DC50 [3] [nM] |
| --- | --- | --- | --- | --- |
| Cc1ncoc1-c1ccc(CNC(=O)[C@@H]2C[C@@H](O)CN2C(=O)[C@@H](NC(=O)COCCCCOc2ccc(-c3ccc(N4C(=S)N(c5ccc(C#N)c(C(F)(F)F)c5)C(=O)C4(C)C)c(F)c3)cc2)C(C)(C)C)cc1 [Example 116, (2S,4R)-1-[(2S)-2-(2-{4-[4-(4-{3-[4-cyano-3-(trifluoromethyl)phenyl]-5,5-dimethyl-4-oxo-2-sulfanylideneimidazolidin-1-yl}-3-fluorophenyl)phen-oxy]butoxy}acetamido)-3,3-dimethylbutanoyl]-4-hydroxy-N-{[4-(4-methyl-1,3-oxazol-5-yl)phenyl]methyl}pyrrolidine-2-carboxamide] | > 71 | < 50 | – | – |
| CC(C)(C)[C@H](NC(=O)COCCCCOc1ccc(-c2ccc(N3C(=S)N(c4ccc(C#N)c(C(F)(F)F)c4)C(=O)C3(C)C)c(F)c2)cc1)C(=O)N1C[C@H](O)C[C@H]1C(=O)NCc1ccc(-c2cncs2)cc1 [Example 117, (2S,4R)-1-[(2S)-2-(2-{4-[4-(4-{3-[4-cyano-3-(trifluoromethyl)phenyl]-5,5-dimethyl-4-oxo-2-sulfanylideneimidazolidin-1-yl}-3-fluorophenyl)phen-oxy]butoxy}acetamido)-3,3-dimethylbutanoyl]-4-hydroxy-N-{[4-(1,3-thiazol-5-yl)phenyl]methyl}pyrrolidine-2-carboxamide] | > 71 | < 50 | – | – |
| Cc1ncsc1-c1ccc(CNC(=O)[C@@H]2C[C@@H](O)CN2C(=O)[C@@H](NC(=O)COCCCCOc2ccc(-c3ccc(N4C(=S)N(c5ccc(C#N)c(C(F)(F)F)c5)C(=O)C4(C)C)c(F)c3)cc2)C(C)(C)C)cc1 [Example 118, (2S,4R)-1-[(2S)-2-(2-{4-[4-(4-{3-[4-cyano-3-(trifluoromethyl)phenyl]-5,5-dimethyl-4-oxo-2-sulfanylideneimidazolidin-1-yl}-3-fluorophenyl)phen-oxy]butoxy}acetamido)-3,3-dimethylbutanoyl]-4-hydroxy-N-{[4-(4-methyl-1,3-thiazol-5-yl)phenyl]methyl}pyrrolidine-2-carboxamide] | > 71 | < 50 | – | – |
| Cc1ncoc1-c1ccc(CNC(=O)[C@@H]2C[C@@H](O)CN2C(=O)[C@@H](NC(=O)COCCCCOc2ccc(-c3ccc(N4C(=S)N(c5ccc(C#N)c(C(F)(F)F)c5)C(=O)C45CCC5)cc3)cc2)C(C)(C)C)cc1 [Example 119, (2S,4R)-1-[(2S)-2-(2-{4-[4-(4-{7-[4-cyano-3-(trifluoromethyl)phenyl]-8-oxo-6-sulfanylidene-5,7-diazaspiro[3.4]octan-5-yl}phenyl)phenoxy]butoxy}acetamido)-3,3-dimethylbutanoyl]-4-hydroxy-N-{[4-(4-methyl-1,3-oxazol-5-yl)phenyl]methyl}pyrrolidine-2-carboxamide] | 51 to 70 | < 50 | – | – |
| Cc1ncsc1-c1ccc(CNC(=O)[C@@H]2C[C@@H](O)CN2C(=O)[C@@H](NC(=O)COCCCCOc2ccc(-c3ccc(N4C(=S)N(c5ccc(C#N)c(C(F)(F)F)c5)C(=O)C45CCC5)cc3)cc2)C(C)(C)C)cc1 [Example 120, (2S,4R)-1-[(2S)-2-(2-{4-[4-(4-{7-[4-cyano-3-(trifluoromethyl)phenyl]-8-oxo-6-sulfanylidene-5,7-diazaspiro[3.4]octan-5-yl}phenyl)phenoxy]butoxy}acetamido)-3,3-dimethylbutanoyl]-4-hydroxy-N-{[4-(4-methyl-1,3-thiazol-5-yl)phenyl]methyl}pyrrolidine-2-carboxamide] | > 71 | < 50 | – | – |
| CC(C)(C)[C@H](NC(=O)COCCCCOc1ccc(-c2ccc(N3C(=S)N(c4ccc(C#N)c(Cl)c4)C(=O)C3(C)C)cc2)c(F)c1)C(=O)N1C[C@H](O)C[C@H]1C(=O)NCc1ccc(-c2cnco2)cc1 [Example 121, (2S,4R)-1-[(2S)-2-{2-[4-(4-{4-[3-(3-chloro-4-cyanophenyl)-5,5-dimethyl-4-oxo-2-sulfanylideneimidazolidin-1-yl]phenyl}-3-fluorophenoxy)butoxy]acetamido}-3,3-dimethylbutanoyl]-4-hydroxy-N-{[4-(1,3-oxazol-5-yl)phenyl]methyl}pyrrolidine-2-carboxamide] | > 71 | < 50 | – | – |
| CC(C)(C)[C@H](NC(=O)COCCCCOc1ccc(-c2ccc(N3C(=S)N(c4ccc(C#N)c(C(F)(F)F)c4)C(=O)C3(C)C)cc2)cc1)C(=O)N1C[C@H](O)C[C@H]1C(=O)NCc1ccc(-c2ccn[nH]2)cc1 [Example 122, (2S,4R)-1-[(2S)-2-(2-{4-[4-(4-{3-[4-cyano-3-(trifluoromethyl)phenyl]-5,5-dimethyl-4-oxo-2-sulfanylideneimidazolidin-1-yl}phenyl)phenoxy]butoxy}acetamido)-3,3-dimethylbutanoyl]-4-hydroxy-N-{[4-(1H-pyrazol-5-yl)phenyl]methyl}pyrrolidine-2-carboxamide] | > 71 | < 50 | – | – |
| CC(C)(C)[C@H](NC(=O)COCCCCOc1ccc(-c2ccc(N3C(=S)N(c4ccc(C#N)c(Cl)c4F)C(=O)C3(C)C)cc2)cc1)C(=O)N1C[C@H](O)C[C@H]1C(=O)NCc1ccc(-c2cnco2)cc1 [Example 123, (2S,4R)-1-[(2S)-2-{2-[4-(4-{4-[3-(3-chloro-4-cyano-2-fluorophenyl)-5,5-dimethyl-4-oxo-2-sulfanylideneimidazolidin-1-yl]phenyl}phenoxy)butoxy]acetamido}-3,3-dimethylbutanoyl]-4-hydroxy-N-{[4-(1,3-oxazol-5-yl)phenyl]methyl}pyrrolidine-2-carboxamide] | > 71 | < 50 | – | – |
| CC(C)(C)[C@H](NC(=O)COCCCCOc1ccc(-c2ccc(N3C(=S)N(c4ccc(C#N)c(Cl)c4)C(=O)C34CCC4)cc2)cc1)C(=O)N1C[C@H](O)C[C@H]1C(=O)NCc1ccc(-c2cnco2)cc1 [Example 124, (2S,4R)-1-[(2S)-2-{2-[4-(4-{4-[7-(3-chloro-4-cyanophenyl)-8-oxo-6-sulfanylidene-5,7-diazaspiro[3.4]octan-5-yl]phenyl}phenoxy)butoxy]acetamido}-3,3-dimethylbutanoyl]-4-hydroxy-N-{[4-(1,3-oxazol-5-yl)phenyl]methyl}pyrrolidine-2-carboxamide] | 51 to 70 | < 50 | – | – |
| Cc1cc(N2C(=O)C(C)(C)N(c3ccc(-c4ccc(OCCCCOCC(=O)N[C@H](C(=O)N5C[C@H](O)C[C@H]5C(=O)NCc5ccc(-c6cnco6)cc5)C(C)(C)C)cc4)cc3)C2=S)ccc1C#N [Example 125, (2S,4R)-1-[(2S)-2-{2-[4-(4-{4-[3-(4-cyano-3-methylphenyl)-5,5-dimethyl-4-oxo-2-sulfanylideneimidazolidin-1-yl]phenyl}phenoxy)butoxy]acetamido}-3,3-dimethylbutanoyl]-4-hydroxy-N-{[4-(1,3-oxazol-5-yl)phenyl]methyl}pyrrolidine-2-carboxamide] | – | – | 51 to 70 | < 50 |
| CC(C)(C)[C@H](NC(=O)COCCCCOc1ccc(-c2ccc(N3C(=S)N(c4ccc(C#N)c(F)c4)C(=O)C3(C)C)cc2)cc1)C(=O)N1C[C@H](O)C[C@H]1C(=O)NCc1ccc(-c2cnco2)cc1 [Example 126, (2S,4R)-1-[(2S)-2-{2-[4-(4-{4-[3-(4-cyano-3-fluorophenyl)-5,5-dimethyl-4-oxo-2-sulfanylideneimidazolidin-1-yl]phenyl}phen-oxy)butoxy]acetamido}-3,3-dimethylbutanoyl]-4-hydroxy-N-{[4-(1,3-oxazol-5-yl)phenyl]methyl}pyrrolidine-2-carboxamide] | – | – | 51 to 70 | < 50 |
